Reference: publication PMC7515716 (2020)

Columns and labels:
[1] = tested on: xpt/pbuE*6U guanine riboswitch (RNA, riboswitch) AAAUUAAAUAGCUAUUAUCACGAUUUUUAUAAUCGCGUGGAUAUGGCACGCAAGUUUCUACCGGGCACCGUAAAUGUCCGACUAAAAAUCCUGAUUACAAAAUUUGUUUAUGACAUUUUUUGUAAUCAGGAUUUUUUAUUUAUCAAAACAUUUAAGUAAAGGAGUUUGUUAUGUUUUUUUUGGCCAGUGAAUUCGAGCUCGGUACCCGGGGAUCCUCUAGAAAUAUGGAUUACUUGGUAGAACAGCAAUCUACUCGACCUGCAGGCAUGCAAGCUUGGCGUAAUCAUGGUCAUAGCUGUUUCCUGUGUUUAUCCGCUCACAAUUCCACACAACAUACGAGCCGGAAGCAUAAAG; experiment: SPRINT: multiple-turnover transcription read-through, Cas13a fluorescence; settings: 70 mM Na+ (NaCl), 2.5 mM Mg2+
[2] = tested on: ribD/pbuE*7U FMN riboswitch (RNA, riboswitch) AAAUUAAAUAGCUAUUAUCACGAUUUUUCGGGGCAGGGUGGAAAUCCCGACCGGCGGUAGUAAAGCACAUUUGCUUUAGAGCCCGUGACCCGUGUGCAUAAGCACGCGGUGGAUUCAGUUUAAGCUGAAGCCGACAGUGAAAGUCUGGAUGGGAGAAAAAUCCUGAUUACAAAAUUUGUUUAUGACAUUUUUUGUAAUCAGGAUUUUUUUAUUUAUCAAAACAUUUAAGUAAAGGAGUUUGUUAUGUUUUUUUUGGCCAGUGAAUUCGAGCUCGGUACCCGGGGAUCCUCUAGAAAUAUGGAUUACUUGGUAGAACAGCAAUCUACUCGACCUGCAGGCAUGCAAGCUUGGCGUAAUCAUGGUCAUAGCUGUUUCCUGUGUUUAUCCGCUCACAAUUCCACACAACAUACGAGCCGGAAGCAUAAAG; experiment: as above; settings: 70 mM Na+ (NaCl), 10 mM Mg2+; SPRINT buffer, 37 °C; low-affinity response

Structure (SMILES) | binding [1] | binding [2]
CNc1nc2[nH]cnc2c(=O)[nH]1 | weak | 
Cc1cc2nc3c(=O)[nH]c(=O)nc-3n(C[C@H](O)[C@H](O)[C@H](O)COP(=O)(O)OP(=O)(O)OC[C@H]3O[C@@H](n4cnc5c(N)ncnc54)[C@H](O)[C@@H]3O)c2cc1C |  | weak
